The values that follow come from patent publication US8158640B2, “Tetrahydroquinoline derivatives and a process for preparing the same” (Mitsubishi Tanabe Pharma Corporation, priority 2005, dated 2012).

For this assay, the target named is T1, CETP (Homo sapiens, UniProt P11597).
T1 construct: from tissue; host or cells: plasma from a healthy volunteer
T1 sequence (P11597 18-493): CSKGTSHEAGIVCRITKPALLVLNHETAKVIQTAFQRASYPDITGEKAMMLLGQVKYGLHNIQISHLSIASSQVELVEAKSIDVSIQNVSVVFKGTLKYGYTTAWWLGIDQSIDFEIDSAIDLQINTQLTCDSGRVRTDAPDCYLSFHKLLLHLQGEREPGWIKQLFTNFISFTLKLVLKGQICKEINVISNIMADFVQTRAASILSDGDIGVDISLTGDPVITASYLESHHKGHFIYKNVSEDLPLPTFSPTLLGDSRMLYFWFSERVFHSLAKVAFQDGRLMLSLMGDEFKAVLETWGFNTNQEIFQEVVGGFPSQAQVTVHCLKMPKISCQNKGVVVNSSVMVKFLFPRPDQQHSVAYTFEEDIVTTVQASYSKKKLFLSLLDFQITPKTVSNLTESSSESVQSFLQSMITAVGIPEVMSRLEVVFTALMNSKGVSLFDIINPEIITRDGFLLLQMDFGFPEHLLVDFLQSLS
Put plainly: Inhibitory activity against CETP in vitro (fluorescent BODIPY-CE transfer, donor/acceptor microemulsion, human plasma). It is filed as biochemical. Particulars: plasma from a healthy volunteer diluted to 0.64%; preincubation with test solution 37° C. 24 hours, then 3 hours with donor/acceptor microemulsion; fluorescence Ex.550 nm/Em.600 nm; read-out: IC50 (inhibition of CETP activity). As for the experimental part:
The inhibitory activity of the compounds of the present invention against CETP was tested in this experiment.
A solution of 1-Palmitoyl-2-oleoyl-sn-glycero-3-phosphocholine (3.5 mg), cholesteryl oleate (3 mg) and triolein (0.7 mg) in chloroform was mixed and lipid was air-dried under nitrogen gas to remove solvent. 1,4-Dioxane (0.25 ml) was then added and the mixture was stirred for dissolution. The resultant lipid solution (0.2 ml) was slowly injected under the surface of Tris-saline-EDTA(TSE) buffer solution [10 mM Tris/HCl (pH 7.4), 0.15M NaCl, 2 mM EDTA] (10 ml) with Hamilton syringe, while sonicating in ice-bath. After 1-hour-sonication in ice-bath, the solution was stored at 4° C.
A solution of egg PC (phosphatidylcholine) (0.33 mg) and BODIPY-CE (0.62 mg) in chloroform was mixed. After removing solvent by air-drying lipid under nitrogen gas, TSE buffer solution (3 ml) was added and the solution was sonicated in ice-bath. This solution was filtered to sterilize through 0.22 μm filter and stored at 4° C.
A test solution was prepared using dimethyl sulfoxide as a solvent. Plasma from a healthy volunteer was diluted to 0.64% with TSE buffer, and to the resultant plasma solution (187 μl) was added a test solution (3 μl) or the solvent alone followed by incubation at 37° C. for 24 hours. After addition of TSE buffer solution (10 μl) containing 5% donor micro-emulsion and 5% acceptor microemulsion, the mixture was incubated at 37° C. for 3 hours. […] CETP activity was defined as the difference between the measurements obtained before incubation and after incubation. The decreasing rate of the difference in the sample was defined as the inhibition rate of CETP activity. IC50 for each sample was calculated from the inhibition rate of CETP activity.
On to `CCOC(=O)N1c2ccc(C(F)(F)F)cc2C(N(Cc2cc(C(F)(F)F)cc(C(F)(F)F)c2)c2ncc(OCCCCC(=O)O)cn2)CC1CC` (stereo not drawn) [Example 198], for which the IC50 worked out at 0.66 nM.

For the molecule `CCOC(=O)N1c2ccc(C(F)(F)F)cc2[C@@H](N(Cc2cc(C(F)(F)F)cc(C(F)(F)F)c2)c2ccc(OCCCC(=O)O)cn2)C[C@H]1CC` [Example 231, (2R,4S)-4-{[3,5-bis(trifluoromethyl)benzyl]-[5-(3-carboxypropoxy)pyridin-2-yl]}amino-2-ethyl-6-trifluoromethyl-3,4-dihydro-2H-quinoline-1-carboxylic acid ethyl ester], the IC50 is 0.53 nM.

For `CCOC(=O)N1c2ccc(C(F)(F)F)cc2[C@@H](N(Cc2cc(C(F)(F)F)cc(C(F)(F)F)c2)c2ncc(N(C)CCC(=O)O)cn2)C[C@H]1CC` [Example 127], the IC50 is 0.89 nM.

Regarding `CCOC(=O)N1c2ccc(C(F)(F)F)cc2[C@@H](N(Cc2cc(C#N)cc(C(F)(F)F)c2)c2ncc(N3CCC(C(=O)O)CC3)cn2)C[C@H]1CC` [Example 235, (2R,4S)-4-{[5-(4-carboxypiperidin-1-yl)pyrimidin-2-yl]-(3-cyano-5-trifluoromethylbenzyl)}amino-2-ethyl-6-trifluoromethyl-3,4-dihydro-2H-quinoline-1-carboxylic acid ethyl ester], the IC50 worked out at 2.7 nM.

Consider “(2R*,4S*)-4-{[3,5-bis(trifluoromethyl)benzyl]-[(5-morpholin-4-yl)pyrimidin-2-yl]}amino-2-ethyl-6-trifluoromethyl-3,4-dihydro-2H-quinoline-1-carboxylic acid 2-hydroxyethyl ester [Example 174]”, for which the IC50 was 0.23 nM.

As to “(2R,4S)-4-{[3,5-bis(trifluoromethyl)benzyl]-[5-(2-methoxyethoxy)pyrimidin-2-yl]}amino-2-ethyl-6-trifluoromethyl-3,4-dihydro-2H-quinoline-1-carboxylic acid 2-carboxyethyl ester [Example 291]”, the IC50 stood at 0.32 nM.

With “(2R,4S)-4-{[3,5-bis(trifluoromethyl)benzyl]-[5-(morpholin-4-yl)-pyrimidin-2-yl]}amino-2-ethyl-6-trifluoromethyl-3,4-dihydro-2H-quinoline-1-carboxylic acid ethyl ester [Example 1]”, the concentration for half-maximal inhibition (IC50) amounted to 0.17 nM.

For the molecule “(2R,4S)-4-{[3,5-bis(trifluoromethyl)-benzyl]-(5-carboxypyrimidin-2-yl)}amino-2-ethyl-6-trifluoromethyl-3,4-dihydro-2H-quinoline-1-carboxylic acid ethyl ester [Example 16]”, the IC50 was 4.2 nM.

Consider “(2R,4S)-4-{[3,5-bis(trifluoromethyl)benzyl]-[5-(morpholin-4-yl)pyrimidin-2-yl]}amino-2-ethyl-6-trifluoromethyl-3,4-dihydro-2H-quinoline-1-carboxylic acid 5-carboxypentyl ester [Example 275]”, for which the IC50 was 0.18 nM.

What is called IC50 is the concentration that inhibits the measured activity by half.
